ChEMBL document CHEMBL3045870, “Some new thiazolyl thiazolidinedione derivatives as aldose reductase inhibitors” (Med Chem Res, 2007)

Biological target: Aldo-keto reductase family 1 member B1 (Rattus norvegicus) (UniProt P07943)
Experiment: Inhibition of Rattus norvegicus (rat) kidney aldose reductase using D-L-glyceraldehyde as substRattus norvegicus (rat) e assessed as decrease in NADPH level at 10^-4 M measured for 5 min by spectrophotometric analysis

| inhibition [%] | SMILES |
| --- | --- |
| 1.56 | O=C1S/C(=C\c2sc(SCc3ccc(Cl)cc3)nc2Cl)C(=O)N1Cc1ccc(Cl)cc1Cl |
| 3.27 | O=C1S/C(=C\c2sc(N3CCCCC3)nc2Cl)C(=O)N1Cc1ccc(Cl)cc1Cl |
| 2.49 | O=C1S/C(=C\c2sc(N3CCCCC3)nc2Cl)C(=O)N1Cc1ccc([N+](=O)[O-])cc1 |
| 0 | O=C1S/C(=C\c2sc(SCc3ccc(Cl)cc3)nc2Cl)C(=O)N1Cc1ccc(Br)cc1 |
| 0 | O=C1S/C(=C\c2sc(SCc3ccc(Cl)cc3)nc2Cl)C(=O)N1Cc1ccc(F)cc1 |
| 0 | O=C1S/C(=C\c2sc(SCc3ccc(Cl)cc3)nc2Cl)C(=O)N1Cc1ccc(Cl)cc1 |
| 0.62 | O=C1S/C(=C\c2sc(N3CCCCC3)nc2Cl)C(=O)N1Cc1ccc(Cl)cc1 |
| 0 | O=C1S/C(=C\c2sc(N3CCCCC3)nc2Cl)C(=O)N1Cc1ccccc1 |
| 0.62 | O=C1S/C(=C\c2sc(N3CCCCC3)nc2Cl)C(=O)N1Cc1ccc(Br)cc1 |
| 0 | O=C1S/C(=C\c2sc(SCc3ccc(Cl)cc3)nc2Cl)C(=O)N1Cc1ccccc1 |
| 0 | O=C1S/C(=C\c2sc(SCc3ccc(Cl)cc3)nc2Cl)C(=O)N1Cc1ccc([N+](=O)[O-])cc1 |
| 0 | O=C1S/C(=C\c2sc(N3CCCCC3)nc2Cl)C(=O)N1Cc1ccc(F)cc1 |
